Data taken from article PMC12323621, “Exploring the antimicrobial activity of pantothenamides against uropathogenic Escherichia coli” (Microbiology Spectrum, 2025).

Columns and labels:
Type in all cases: cell-based, Escherichia coli
UPEC strain CFT073 [1] = experiment: Checkerboard analysis of BAP with pantothenamide in pooled human urine; details: combination with BAP, UPEC in urine batch B
Description: As previously described ([7]), an inoculum of 10^5 CFU/mL CFT073 was prepared in pooled human urine Batch B (described above). Cells (100 µL) were added 1:1 to a 96-well plate containing varied combinations of BAP and 1 or N5-Pan analog at 2× the final concentration (100 µL). The OD600 was recorded at 37°C for 16 h with intermittent shaking. Fractional growth was calculated relative to the no drug control at 6 h. Experiments were performed in biological triplicate.
Fractional inhibitory concentration indices (FICI) were determined as previously described ([7], [8]) and calculated using equation 2:
FICI=FICA+FICB=([A]/MICA)+([B]/MICB)
MICA and MICB are the lowest [A] or [B], respectively, required to suppress 90% of the bacterial growth. FICA was calculated as [A] in the presence of B for a combination resulting in <10% growth, divided by MICA. FICB was calculated as [B] in the presence of A for a combination resulting in <10% growth, divided by MICB. Isobolograms were prepared from the checkerboard analysis by plotting FIC for BAP and 1 or 6 over the range of BAP concentrations tested in combination with 1 or 6. Points falling below the line of additivity indicate potentiation of activity. See Fig. S6 for the visual representation of the method of assembling isobolograms.

UPEC strain CFT073 [2] = experiment: Antimicrobial susceptibility assay, UPEC grown in MOPS-glycerol; details: UPEC CFT073 grown in MOPS-glycerol, 24 h, ± standard error; for MIC: Escherichia coli
Source text: (§1) Unless otherwise noted, all reagents were obtained from commercial sources. BAP, 1, and N5-Pan analogs were synthesized according to previously reported procedures ([31], [53]). Urine was self-collected from adult males and females (not menstruating) between 24 and 57 years old (recruitment was open to donors 18–65 years old), who had not used anti-infectives or cranberry products for at least 7 days prior to collection. The collection protocol was approved by the Johns Hopkins University Institutional Review Boards under IRB study NA_00085130. Informed, written consent was obtained from all participants prior to collection. Urine was collected from at least 7 participants over 14 days, stored at 4°C upon collection, and then pooled, filter-sterilized, and frozen at −20°C. Urine Batch A included five male and three female donors with an average age of 33 years (range: 24–57). Urine Batch B included four male and five female donors with an average age of 26 years (range: 24–43). Samples from two donors (donations made at least 30 days apart) were included in both Batch A and Batch B. Urine Batch C included four male and three female donors with an average age of 27 years (range: 24–36). Urine Batch D included four male and three female donors with an average age of 27 years (range: 25–35). Solid urine agar plates were prepared by supplementing cooled 1.5% (wt/vol) agar with filter-sterilized urine in a 4:1 ratio. Liquid MOPS-glycerol was prepared by adding 10 × 3-(N-morpholino)propanesulfonic acid (MOPS) Buffer (Teknova) to water to a final 1× concentration, 1.32 mM K2HPO4, and 0.4% (vol/vol) glycerol and then filter-sterilizing. Unless otherwise noted, all media were supplemented with freshly prepared 20 µM FeSO4. OD600 analyses were performed on Mettler-Toledo UV5Bio UV/Visible spectrophotometer (Columbus, Ohio, USA). For antimicrobial studies, uropathogenic E. coli strain CFT073 (ATCC: BAA-2503) was provided by Kevin Schwartz from the lab of Rodney Welch. All manipulation of UPEC was conducted in a certified biosafety level 2 (BSL-2) laboratory while using BSL-2-associated safety procedures. Antimicrobial data were collected on a Biotek Epoch 2 microplate reader or a Biotek Synergy Neo 2 microplate reader. For metabolic stability studies, losartan potassium (PHR1602), used as an internal standard, was bought from Millipore Sigma (Burlington, MA). Methanol (A456-4) and acetonitrile (A955-4) were purchased from Fisher Chemical (Pittsburgh, PA). Water (9831-03) was purchased from JT Baker (Philipsburg, NJ). Dimethyl sulfoxide (DMSO)(154938-500mL) was purchased from Sigma Aldrich (St. Louis, MO). Mouse plasma (WT) was purchased from Innovative Research (Novi, MI). Mouse liver microsomes (M1000) were purchased from XenoTech LLC (Kansas City, KS).
(§2) All antimicrobial susceptibility assays were conducted as previously described using an aseptic technique with some modification ([7]). Briefly, 3–5 isolated colonies of CFT073 on LB agar or pooled urine agar were inoculated into 3 mL of liquid MOPS-glycerol medium or pooled urine, respectively, and grown overnight with shaking at 37°C. Saturated cultures were diluted 1:50 in fresh medium and grown to an OD600 of 0.4. These exponential phase cultures were then diluted 1:1,000 into fresh medium to yield the experimental inoculum, which was mixed 1:1 with medium containing 1 or N5-Pan analog at twice the desired final concentration in 96-well plates. The final concentration of bacteria in each well was approximately 10^5 CFU/mL in a final volume of 200 µL. The concentration ranges of compounds evaluated in MOPS-glycerol were: 1 (0–312.5 μM), 2 (0–100 μM), 3 (0–500 μM), 4–5 (0–2,000 μM), 6–7 (0–100 μM), and 8–12 (0-2,000 μM). Analogs 1, 6, and 7 were evaluated over a range of 0–4,000 μM in four batches of pooled human urine. The OD600 was monitored for 24 h (MOPS-glycerol) or 16 h (pooled urine) at 37°C with periodic shaking. […]

UPEC strain CFT073 [3] = experiment: Antimicrobial susceptibility assay, UPEC grown in pooled human urine
Source text: as §1, §2

[4] = Escherichia coli, UPEC CFT073, all urine batches A-D, read-out: MIC across four batches of pooled urine
[5] = Escherichia coli, UPEC CFT073, urine batch A, read-out: MIC in pooled human urine, urine batch A
[6] = Escherichia coli, UPEC CFT073, urine batch B, read-out: MIC in pooled human urine, urine batch B
[7] = Escherichia coli, UPEC CFT073, urine batch C, read-out: MIC in pooled human urine, urine batch C
[8] = Escherichia coli, UPEC CFT073, urine batch D, read-out: MIC in pooled human urine, urine batch D
[9] = UPEC CFT073, urine batch A, read-out: MIC in pooled human urine, urine batch A
[10] = UPEC CFT073, urine batch B, read-out: MIC in pooled human urine, urine batch B

MIC (UPEC strain CFT073 [2])	MIC MOPS-glycerol (UPEC strain CFT073 [2])	MIC (UPEC strain CFT073 [3]; [4])	MIC (UPEC strain CFT073 [3]; [5])	MIC (UPEC strain CFT073 [3]; [6])	MIC (UPEC strain CFT073 [3]; [7])	MIC (UPEC strain CFT073 [3]; [8])	MIC (UPEC strain CFT073 [3]; [9])	MIC (UPEC strain CFT073 [3]; [10])	fold higher MIC in urine than in MOPS-glycerol (UPEC strain CFT073 [3]; urine MICs vs MIC in MOPS-glycerol)	Compound	effect of BAP on activity (isobologram analysis) (UPEC strain CFT073 [1])	Fractional inhibitory concentration index (FICI) (UPEC strain CFT073 [1]; range across experiments)
2.44 µM	2.44 ± 0.00 µM	250 to 1000 µM	1000 µM	250 µM	1000 µM	1000 µM	1000 µM	250 µM	–	CCCCCNC(=O)CCNC(=O)[C@H](O)C(C)(C)CO [compound 1, N-pentylpantothenamide, reference compound]	potentiates the activity	–
6.25 µM	6.25 ± 0.00 µM	250 to 1000 µM	1000 µM	250 µM	500 µM	500 µM	1000 µM	250 µM	> 40 fold	CCCCCNC(=O)CNC(=O)[C@H](O)C(C)(C)CO [compound 6, N5-α-pantothenamide]	potentiates the activity	0.5–1.25
